# Data as given in patent publication US5143916A, “Naphthylpiperazines useful as 5-HT1A receptor ligands” (Adir et Compagnie, priority 1989, dated 1992).
# Legend:
# [1] = dog, in vivo; cited from earlier work
# 5-HT1A receptors = settings: European Journal of Pharmacology, (1988), 149, p. 213-223; cited from earlier work
# [2] = Antihypertensive activity: arterial blood pressure and heart rate in anesthetized mongrel dogs (i.v.); assay type: in vivo
# Procedure: Mongrel dogs (male and female) are anesthetized with phenobarbital (30 mg/kg i.v.) and then placed in artificial respiration (Bird Mark VII respirator). Arterial blood pressure is measured by means of a catheter placed in the abdominal aorta via the femoral artery. This catheter is connected to a pressure cell (Statham® R23 D6) linked to a recorder.
# Heart rate is measured by means of a Gould Biotach®.
# Sympathetic nervous activity is recorded from the renal nerve by means of a silver electrode. The amplified signal is visualized on an oscilloscope (Tektronix 5115®) and then measured in μV by means of a Gould integrator.
smiles,measurement,setting,value
"O=C(NCCN1CCN(c2cccc3c2OC[C@H](CO)O3)CC1)c1ccc(F)cc1 (single isomer, unassigned) [Flesinoxan, (+) isomer]",Relative activity of flesinoxan isomers,[1],the more active isomer
O=C(NCCN1CCN(c2cccc3c2OC[C@H](CO)O3)CC1)c1ccc(F)cc1 [flesinoxan],"5-HT1A receptor agonist activity, antihypertensive properties",5-HT1A receptors,antihypertensive properties due to its 5-HT1A receptor agonist activity
"O=C(NCCN1CCN(c2cccc3c2OC[C@H](CO)O3)CC1)c1ccc(F)cc1 (racemic) [Flesinoxan, racemic]",Effect on arterial blood pressure,[2]; 10 μg/kg i.v.,0 mm/Hg
same,Effect on heart rate,[2]; 10 μg/kg i.v.,0 Beats/min.
same,Effect on heart rate,[2]; 30 μg/kg i.v.,0 Beats/min.
